Measurements as given in patent US12247019B2 (Centaurus Therapeutics, priority 2018, dated 2025).
Where two headings read alike, the source gives them in different places.

Legend:
Des1 [1] = target: T1, Des1 (Homo sapiens, UniProt O15121); assay: Jurkat T cell measurement of conversion of dihydroceramide to ceramide (Des1 activity, LC-MS/MS of NBD-C6-ceramide); type: cell-based; set-up: Jurkat clone E6-1 cells were grown and then seeded at 10^6 cells/mL in a 96-well plate; endogenous in cells; host or cells: Jurkat clone E6-1; conditions: 0.5 uM compound; Jurkat clone E6-1 cells, 10 μM NBD-C6-dihydroceramide, 3 hours at 37° C.; read-out: Des1 % Inhib (0.5 uM)
T1 sequence (O15121 1-323): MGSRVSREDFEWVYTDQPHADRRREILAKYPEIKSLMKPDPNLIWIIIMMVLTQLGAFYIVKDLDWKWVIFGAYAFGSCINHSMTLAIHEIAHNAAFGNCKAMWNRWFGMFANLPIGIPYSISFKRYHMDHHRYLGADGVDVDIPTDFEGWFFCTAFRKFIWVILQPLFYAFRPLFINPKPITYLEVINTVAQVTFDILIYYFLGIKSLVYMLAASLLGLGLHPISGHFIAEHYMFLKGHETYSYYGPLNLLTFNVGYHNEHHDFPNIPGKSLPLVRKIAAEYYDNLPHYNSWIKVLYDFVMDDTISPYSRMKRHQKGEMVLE
Procedure: (§1) Jurkat T Cell Measurement of Conversion of Dihydroceramide to Ceramide
Jurkat clone E6-1 cells were grown and then seeded at 10^6 cells/mL in a 96-well plate (400 μL in each well. The cells were administered 100 μL of cell culture media containing 50-μM NBD-C6-dihydroceramide (Des1 substrate), affording a final concentration of substrate of 10 μM. The cells were incubated with substrate at 4° C. for 30 minutes. Following the incubation at 4° C., the cell suspension was centrifuged at 1200 rpm for 3 minutes, and the cell pellet is resuspended in 400 μL of fresh media containing various concentrations of either fenretinide (known Des1 inhibitor control compound) or test article. The final concentrations of control compound and test compounds were tested in a range from 0-10 μM. The cells and compounds were incubated at 37° C. for 3 hours. Following the 3-hour incubation, the plate was centrifuged at 2500 g for 3 minutes at 4° C., followed by collection and transfer of 200 μL of the supernatant to a new 96-well plate with 300 μL of methanol an containing appropriate internal standards for liquid chromatography/tandem mass spectroscopy (LC/MS/MS) analysis (internal standard: 500 nM labetalol and 100 nM alprazolam). The samples were vortexed for 2 minutes followed by centrifugation at 3,220 g for 20 minutes. […]

Des1 [2] = target: T1, Des1; assay: as above; type: cell-based; set-up: endogenous in cells; host or cells: Jurkat clone E6-1; conditions: Jurkat clone E6-1 cells; for inhibition at 0.5 µM: 0.5 uM compound, read-out: Des1 % Inhib (0.5 uM)
Procedure: as §1
Jurkat clone E6-1 cells were grown and then seeded at 10^6 cells/mL in a 96-well plate (400 μL in each well. The cells were administered 100 μL of cell culture media containing 50-μM NBD-C6-dihydroceramide (Des1 substrate), affording a final concentration of substrate of 10 μM. The cells were incubated with substrate at 4° C. for 30 minutes. Following the incubation at 4° C., the cell suspension was centrifuged at 1200 rpm for 3 minutes, and the cell pellet is resuspended in 400 μL of fresh media containing various concentrations of either fenretinide (known Des1 inhibitor control compound) or test article. The final concentrations of control compound and test compounds were tested in a range from 0-10 μM. The cells and compounds were incubated at 37° C. for 3 hours. Following the 3-hour incubation, the plate was centrifuged at 2500 g for 3 minutes at 4° C., followed by collection and transfer of 200 μL of the supernatant to a new 96-well plate with 300 μL of methanol an containing appropriate internal standards for liquid chromatography/tandem mass spectroscopy (LC/MS/MS) analysis (internal standard: 500 nM labetalol and 100 nM alprazolam). The samples were vortexed for 2 minutes followed by centrifugation at 3,220 g for 20 minutes. Following centrifugation, 200 μL of the supernatant was transferred to a new 96-well plate for LC-MS/MS analysis to determine the amount of NBD-C6-ceramide (Des1 product) produced. The assay was typically performed in duplicate. A reduction of at least 30% compared to vehicle control (0 μM test article) is indicative of an active compound, and a reduction of 75% compared to vehicle control is preferred.

[3] = tested on: insulin-stimulated Akt phosphorylation in C2C12 myotubes; assay: C2C12 myotube assay of insulin-stimulated phosphorylation of Akt; type: cell-based; conditions: 0.75 mM BSA-conjugated palmitate 16 hours, insulin 100 nM 10 minutes; read-out: half-maximal effective concentration (EC50) for increasing insulin-stimulated Akt phosphorylation in the presence of palmitate
Procedure: C2C12 Myotube Assay of Insulin-Stimulated Phosphorylation of Akt:
C2C12 myotubes are treated with 0.75 mM BSA-conjugated palmitate for 16 hours in the presence or absence of 7 non-zero concentrations of fenretinide (Des1 inhibitor control compound) or various test articles, followed by a 10-minute stimulation with insulin (100 nM). Cells are subsequently harvested and boiled in reducing SDS sample buffer and subjected to SDS-PAGE followed by detection of phosphorylated Akt, total Akt, and a suitable loading control (e.g. actin or GAPDH) by western blot using fluorescently-conjugated secondary antibodies. Band intensities are quantitated by an Odyssey imaging system (Li—COR), but could also be performed using HRP-conjugated secondary antibodies/enhanced chemiluminescence or by colorimetric readout.
Moreover, while currently contemplated for SDS-PAGE/immunoblot format, this assay could be adapted to ELISA or in-cell western (immunocytochemistry) formats for higher throughput testing of compounds. An increase of 30% compared to vehicle control (0 μM test article) is indicative of an active compound, and an increase of 50% compared to control is preferred. […] Des1 inhibitors disclosed herein are expected to be effective in this assay.

CFTR-KO mice = conditions: Guilbault et al. 2008, 2009, cited from earlier work
[4] = 10 μM NBD-C6-dihydroceramide, 3 hours at 37° C.
[5] = 10 μM NBD-C6-dihydroceramide, 3 hours at 37° C., read-out: Des1 IC50

| inhibition at 0.5 µM (Des1 [2]; [4]) [%] | IC50 (Des1 [2]; [5]) [nM] | Structure (SMILES) | further results |
| --- | --- | --- | --- |
|  |  | O=S(=O)(Nc1ccc(O)cn1)N1CCN(c2ccc(F)cc2)CC1 [Example 72] | inhibition at 0.5 µM (Des1 [1]): 50.2% |
| 41.9 |  | O=S(=O)(Nc1ccc(O)cn1)N1CCN(c2ccc(Cl)cn2)CC1 [Example 73, 4-(5-Chloropyridin-2-yl)-N-(5-hydroxypyridin-2-yl)piperazine-1-sulfonamide] |  |
| 72.8 |  | O=S(=O)(Nc1ccc(O)cn1)N1CCN(c2ccc(Cl)cc2)CC1 [Example 74, 4-(4-chlorophenyl)-N-(5-hydroxypyridin-2-yl)piperazine-1-sulfonamide] |  |
| 91.2 | 62 to 86 | O=S(=O)(Nc1ccc(O)cn1)N1CCN(c2ccc(C(F)(F)F)cc2)CC1 [Example 75, N-(5-hydroxypyridin-2-yl)-4-(4-(trifluoromethyl)phenyl)-piperazine-1-sulfonamide] |  |
| 75.1 |  | O=C(NCc1ccc(Cl)cc1)Nc1ccc(O)cn1 [Example 76, 1-[(4-chlorophenyl)methyl]-3-(5-hydroxypyridin-2-yl)urea] |  |
| 91.9 | 35 | O=C(Nc1ccc(O)cn1)N1CCN(Cc2ccc(F)c(F)c2)CC1 [Example 77, 4-[(3,4-difluorophenyl)methyl]-N-(5-hydroxypyridin-2-yl)piperazine-1-carboxamide] |  |
| 93.4 | 19 to 64 | O=C(Nc1ccc(O)cn1)N1CCN(c2cc(F)ccn2)CC1 [Example 78, 4-(4-fluoropyridin-2-yl)-N-(5-hydroxypyridin-2-yl)piperazine-1-carboxamide] |  |
| 93.8 | 7.6 to 70 | O=C(Nc1ccc(O)cn1)N1CCN(c2ncc(F)cc2F)CC1 [Example 79, 4-(3,5-difluoropyridin-2-yl)-N-(5-hydroxypyridin-2-yl) piperazine-1-carboxamide] |  |
| 56.9 |  | O=C(Nc1ccc(O)cn1)N1CCN(c2cnn(-c3ccccc3)c2)CC1 [Example 80, N-(5-hydroxypyridin-2-yl)-4-(1-phenyl-1H-pyrazol-4-yl)piperazine-1-carboxamide] |  |
| 77.9 |  | Cn1ncc2c(N3CCN(C(=O)Nc4ccc(O)cn4)CC3)cccc21 [Example 81, N-(5-hydroxypyridin-2-yl)-4-(1-methyl-1H-indazol-4-yl)piperazine-1-carboxamide] |  |
| 78.4 |  | Cn1ncc2ccc(N3CCN(C(=O)Nc4ccc(O)cn4)CC3)cc21 [Example 82, N-(5-hydroxypyridin-2-yl)-4-(1-methyl-1H-indazol-6-yl)piperazine-1-carboxamide] |  |
| 94.9 | 65 | O=C(Nc1ccc(O)cn1)N1CCN(c2nc(F)c(F)cc2F)CC1 [Example 83, N-(5-hydroxypyridin-2-yl)-4-(3,5,6-trifluoropyridin-2-yl) piperazine-1-carboxamide] |  |
|  | 100 | O=C(Nc1ccc(O)cn1)N1CCCN(c2ccc(F)cn2)CC1 [Example 84, 4-(5-fluoropyridin-2-yl)-N-(5-hydroxypyridin-2-yl)-1,4-diazepane-1-carboxamide] |  |
|  | 55 | O=C(Nc1ccc(O)cn1)N1CCCN(c2ccc(Cl)cn2)CC1 [Example 85, 4-(5-chloropyridin-2-yl)-N-(5-hydroxypyridin-2-yl)-1,4-diazepane-1-carboxamide] |  |
| 84.6 | 78 | O=C(Nc1ccc(O)cn1)N1CCCN(c2ccc(C(F)(F)F)cn2)CC1 [Example 86, N-(5-hydroxypyridin-2-yl)-4-[5-(trifluoromethyl)pyridin-2-yl]-1,4-diazepane-1-carboxamide] |  |
| 92.7 | 21 | O=C(Nc1ccc(O)cn1)N1CCCN(c2ccc(F)c(F)c2)CC1 [Example 87, 4-(3,4-difluorophenyl)-N-(5-hydroxypyridin-2-yl)-1,4-diazepane-1-carboxamide] |  |
| 92.7 | 25 | O=C(Oc1ccc(O)cn1)N1CCN(c2ccc(C(F)(F)F)cn2)CC1 [Example 88, 5-hydroxypyridin-2-yl 4-[5-(trifluoromethyl)pyridin-2-yl]piperazine-1-carboxylate] |  |
| 93 | 2.9 | O=C(Nc1ccc(O)cn1)c1cccc(-c2ccccc2)c1 [Example 89, N-(5-hydroxypyridin-2-yl)-[1,1-biphenyl]-3-carboxamide] |  |
| 39.2 |  | Cn1cc(C2CCC(C(=O)Nc3ccc(O)cn3)CC2)cn1 (centres unmarked) [Example 90, N-(5-hydroxypyridin-2-yl)-4-(1-methyl-1H-pyrazol-4-yl)cyclohexane-1-carboxamide] |  |
|  |  | CC1=C(/C=C/C(C)=C/C=C/C(C)=C/C(=O)Nc2ccc(O)cc2)C(C)(C)CCC1 [fenretinide] | EC50 [3]: 600 nM; IC50 (Des1 [2]; read-out: half-maximal inhibitory concentration (IC50)): 100 to 250 nM; susceptibility to infection with Pseudomonas aeruginosa (CFTR-KO mice; CFTR-KO mice): reduce susceptibility to infection; ratio of lung arachidonic acid (AA) to docosahexaenoic acid (DHA) (CFTR-KO mice; lungs of CFTR-KO mice): normalize this ratio |
